# Results from patent publication US7910111B2, “Inhibitors of N-ethylmaleimide sensitive factor” (The Johns Hopkins University, priority 2003, dated 2011).
# No end group written: not given here.
# Legend:
# [1] = test system: human aortic endothelial cells (HAEC); conditions: for effect on thrombin stimulated vWF release: HAEC pre-treated with reagent, thrombin 1 U/ml 1 h; for effect on thrombin induced vWF release, dose response: HAEC pre-treated with increasing amounts, DEA-NONOate 10 min, DETA-NONOate 16 h, SNAP 6 h, NEM 1 h, L-NAME 16 h; for effect of peptide on thrombin induced vWF release: HAEC incubated 20 min with peptide
# Procedure: To explore the effect of NO upon granule exocytosis, thrombin induced exocytosis of Weibel-Palade bodies from human aortic endothelial cells (HAEC) which release von Willebrand's Factor (vWF) was studied. HAEC was pre-treated with an NO donor 2-(N,N-diethylamino)-diazenolate-2-oxide (DEA-NONOate) 10 mM or with DEA as a control, stimulated the cells with thrombin 1 U/ml for 1 h, and the amount of vWF released into the media was then measured. […] HAEC was then pre-treated with increasing amounts of various NO donors, including a rapidly releasing NO donor DEA-NONOate for 10 min, a slowly releasing NO donor DETA-NONOate for 16 h, or a nitrosothiol S-nitroso-penicillamine (SNAP) for 6 h; alternatively, cells were treated with NEM for 1 h.
# The role of endogenous NO in the regulation of Weibel-Palade body exocytosis was then explored. HAEC was pre-treated with L-NAME for 16 h in order to inhibit endogenous NOS, and then the cells were stimulated with 1 U/ml thrombin for 1 h and vWF release was measured. […] HAEC was next pre-treated with vascular endothelial growth factor (VEGF) in order to activate endogenous NOS3. Cells were incubated with 50 ng/ml VEGF or control for 2 h, and then stimulated with thrombin.
# A peptide inhibitor of NSF that crosses cell membranes was designed. This peptide, designated TAT-NSF222, includes the protein transduction domain of HIV TAT (residues 47-57) previously shown to transduce polypeptides into cells (Becker-Hapak et al., 2001), fused to a fragment of NSF (residues 222-243) previously shown to inhibit NSF (Schweizer et al., 1998). […] HAEC were then incubated for 20 min with TAT-NSF222, or with a control peptide TAT-NSF222scr that consisted of the intact TAT domain followed by the amino acid residues of NSF 222-243 in a scrambled order. HAEC were transduced with TAT-NSF peptides, treated with media or thrombin, and the amount of vWF released into the media was measured by ELISA.
# Since NSF plays a general role in vesicle trafficking, permanent inactivation of NSF would slow vesicular trafficking in general. However, local production of NO at the plasma membrane and reversible nitrosylation of NSF could provide spatial regulation of NSF.
# Human aortic endothelial cells (HAEC) and EGM-2 media were obtained from Clonetics (Walkersville, Md.). HAEC were pre-treated with NO donors, washed, stimulated with 1 U/mil of thrombin, and the amount of vWF released into the media was measured by an ELISA (American Diagnostica, Greenwich, Conn.). HAEC were permeabilized by incubation with 10 U/well of SLO (Sigma) in PBS pH 7.4 for 15 min at 37° C. (Walev et al., 2001). Some cells were incubated with 20-200 μg/ml of antibodies or with 100 μg/ml of recombinant NSF. Cells were then resealed by incubation with EGM-2 media for 4 h at 37° C., washed with EGM-2 media, and stimulated with thrombin as above.
# The ability of TAT-NSF to affect exocytosis from cells was investigated. Endothelial cells release vWF by exocytosis when stimulated by thrombin. Accordingly, endothelial cells were incubated with increasing amounts of TAT-NSF peptides for 20 min, then treated with 1 U/ml thrombin, and the amount of vWF released into the media was measured by ELISA.
# Human aortic endothelial cells (HAEC) and EGM-2 media were obtained from Clonetics (Walkersville, Md.). HAEC were pre-treated with TAT-NSF peptides for 20 min, washed, stimulated with 1 U/ml of thrombin, and the amount of vWF released into the media was measured by an ELISA (American Diagnostica, Greenwich, Conn.).
# mice [2] = experiment: platelet adherence to mesenteric venules in mice (intravital microscopy); assay type: in vivo
# Procedure: To further examine the physiological relevance of NO regulation of Weibel-Palade body exocytosis, the effect of endogenous NO upon platelet interactions with endothelial cells in vivo was measured. Platelet rolling, or transient adherence of platelets to the walls of blood vessels, is mediated by vWF released by exocytosis (Andre et al., 2000). Inhibition of endogenous NO synthesis might permit an increase in Weibel-Palade body exocytosis, an increase in released vWF, and an increase in platelet adherence to venule walls. […] Intravital microscopy was next employed to explore the effects of endogenous NO upon platelet rolling in vivo. Anesthetized mice were pre-treated or not with L-NAME, and then transfused with calcein-AM labeled platelets. The mesentery was externalized, superfused with histamine, and intravital microscopy was used to record interactions of fluorescently labeled platelets with mesenteric venules. Platelets were classified as adherent if they were transiently captured by the endothelium and then translocated in a stop-and-go fashion for a minimum of 2 seconds. […]
# Measurements of platelet adherence in mice was adapted from Andre et al. (Andre et al., 2000). […] Platelet adherence was expressed as the number of adhering fluorescent cells per square millimeter of venular surface, calculated from the diameter and length of segment viewed.
# mice [3] = experiment: bleeding time in mice after tail amputation (Example 1); assay type: in vivo; conditions: intravenous; for effect on bleeding time: tail amputated after 45 min
# Procedure: To explore the physiological relevance of NSF regulation of Weibel-Palade body exocytosis, the effect of the NSF inhibitory peptide upon the bleeding time in mice was measured. Anesthetized mice were injected intravenously with saline, TAT-NSF222, or the control peptide TAT-NSF222scr; and after 45 min the distal 5 mm of tail was amputated and the bleeding time measured. […] In fact, 3 of the 6 mice treated with the TAT-NSF222 peptide had bleeding times in excess of 20 min.
# Measurement of bleeding time in mice was performed as previously described (Weiss et al., 2002). Mice were anesthetized with an intramuscular injection of ketamine and xylazine, and 5 mm of the distal tip of the tail was amputated. The tail was blotted with filter paper every 5 sec until the paper was no longer stained. If the animals bled for 20 min, the experiment was stopped, and the bleeding time was recorded as 20 min.
# recombinant NSF = biological target: T1, recombinant NSF (Cricetulus griseus, UniProt P18708); experiment: NSF ATPase assay (coupled colorimetric assay); assay type: biochemical
# T1 construct: RGS-(His)6 (N); made in house; host or cells: bacteria
# Procedure: The effect of NO upon NSF activity was next explored, since NO inhibits Weibel-Palade body exocytosis, and since NSF regulates Weibel-Palade body exocytosis. The effect of NO upon the ATPase activity of NSF was first examined. DEA-NONOate was added to recombinant NSF, and the ATPase activity of NSF was measured.
# (§1) The ATPase activity of NSF was measured by a coupled assay, in which ATP utilization is linked to the pyruvate kinase reaction, which generates pyruvate, which in turn is measured continuously with lactate dehydrogenase (Huang and Hackney, 1994). Recombinant NSF (0.2 μg/μl) was pre-treated with buffer or DEA or DEA-NONOate or NEM for 10 min at 22° C. ATPase reaction buffer (100 mM HEPES buffer, pH 7.0, 100 mM KCl, 10 mM MgCl2, 5 mM CaCl2, 10 mM ATP, 5 mM phosphoenol pyruvate, 50 U lactate dehydrogenase, and 50 U pyruvate kinase) was added to the mixture, followed by 10 μl of NADH (2 mg/ml in 1% sodium bicarbonate). The mixture was incubated for 10 min at 22° C., and the absorbance was measured at 340 nm.
# The effect of the TAT-NSF peptide inhibitors upon the ability of NSF to hydrolyze ATP was measured. 10 μM TAT-NSF peptides was added to recombinant NSF, and the hydrolysis of ATP was measured. All 5 TAT-NSF peptides inhibited NSF ATPase activity (FIG. 8A). […] The effects of TAT-NSF81 (SEQ ID NO: 6) upon NSF were further defined. TAT-NSF81 (SEQ ID NO: 6) inhibits NSF ATPase activity in a dose-dependent manner with an IC50% between 1-10 μM (FIG. 8B).
# as §1, with “TAT-NSF peptides” for “DEA or DEA-NONOate or NEM”
# [4] = biological target: T2, NSF disassembly of the SNARE complex (Cricetulus griseus, UniProt P18708); assay type: biochemical; conditions: recombinant NSF, α-SNAP, GST-SNAREs, ATP; TAT-NSF peptides 1 μM in Example 2
# T2 construct: made in house; host or cells: bacteria (NSF, alpha-SNAP); BL21 cells (GST-SNAREs)
# Procedure: Accordingly, recombinant NSF was pre-treated with the NO donor DEA-NONOate 1 mM for 10 min. Pre-treated NSF, α-SNAP, and detergent extracts of HAEC membranes were then mixed in the presence of 0.5 mM ATP or ATP-γS. These reactions were then fractionated by sucrose density gradient ultracentrifugation, fractions were collected from the bottom of the tube, and immunoblotted with antibody to syntaxin-4.
# The effect of NO upon NSF disassembly of purified, recombinant SNARE molecules was next examined. Recombinant (His)6-NSF was pre-treated or not with 1 mM DEA-NONOate for 10 min, and then mixed with and (His)6-a-SNAP and recombinant SNARE fusion polypeptides identified in endothelial cells: GST-syntaxin-4, VAMP-3, and SNAP-23. ATP or ATP-γS was added, the mixture was precipitated with glutathione-sepharose beads, and precipitated proteins were fractionated by SDS-PAGE and immunoblotted with antibody to the NSF tag.
# The disassembly activity of NSF was measured by a co-precipitation assay (Pevsner et al., 1994). […] This mixture of NSF and SNARE polypeptides was then incubated in binding buffer (4 mM HEPES pH 7.4, 0.1M NaCl, 1 mM EDTA, 3.5 mM CaCl2, 3.5 mM MgCl2, and 0.5% Nonidet P-40) and glutathione-sepharose beads for 1 h at 4° C. with rotation. The beads were washed with binding buffer 4 times, mixed with SDS-PAGE sample buffer, boiled for 3 min, and analyzed by immunoblotting.
# The effect of the TAT-NSF peptide inhibitors upon the ability of NSF to separate from SNARE complexes was measured. Recombinant NSF was pre-treated with 1 μM TAT-NSF peptides, and recombinant GST-SNARE polypeptides were then added, including syntaxin-4, SNAP-23, and VAMP-3. […]
# The effect of TAT-NSF peptides on NSF disassembly activity was determined. […]
# TAT-NSF81 (SEQ ID NO: 6) inhibition of NSF disassembly activity was also investigated. […] ATP was added, GST-SNAREs were precipitated with glutathione-sepharose, and the precipitant was analyzed for the co-precipitation of NSF.
# The disassembly activity of NSF was measured by a co-precipitation assay (Pevsner et al., 1994). […]
# mice [5] = experiment: myocardial infarction (coronary ligation/reperfusion) in mice; assay type: in vivo
# Procedure: The ability of the fusion peptides of the present invention to impact cardiac infraction was investigated. Mice were pre-treated intravenously with vehicle or 5 ug/mouse TAT-NSF700 (SEQ ID NO: 8) peptide 15 min prior to infarction. Myocardial infarctions were created in mice by ligation of the left anterior descending coronary artery. Myocardial ischemia was maintained for 35 minutes, and then the ligation of the coronary artery was released, and reperfusion continued for 24 h.
# The mice were then sacrificed and the size of the myocardial infarction was quantitated as previously done (Jones S P, Greer J J, Kakkar A K, Ware P D, Turnage R H, Hicks M, van Haperen R, de Crom R, Kawashima S, Yokoyama M, Lefer D J. Am J Physiol Heart Circ Physiol. 2004 January; 286(1):H276-82. Epub 2003 Sep. 11.). The area at risk (AAR) was measured with Evans blue dye, the left ventricle (LV) area was measured by planimetery, and the infarct area (INF) was measured with TTC staining. There were 7 mice per group.
# T1 sequence (P18708 whole entry): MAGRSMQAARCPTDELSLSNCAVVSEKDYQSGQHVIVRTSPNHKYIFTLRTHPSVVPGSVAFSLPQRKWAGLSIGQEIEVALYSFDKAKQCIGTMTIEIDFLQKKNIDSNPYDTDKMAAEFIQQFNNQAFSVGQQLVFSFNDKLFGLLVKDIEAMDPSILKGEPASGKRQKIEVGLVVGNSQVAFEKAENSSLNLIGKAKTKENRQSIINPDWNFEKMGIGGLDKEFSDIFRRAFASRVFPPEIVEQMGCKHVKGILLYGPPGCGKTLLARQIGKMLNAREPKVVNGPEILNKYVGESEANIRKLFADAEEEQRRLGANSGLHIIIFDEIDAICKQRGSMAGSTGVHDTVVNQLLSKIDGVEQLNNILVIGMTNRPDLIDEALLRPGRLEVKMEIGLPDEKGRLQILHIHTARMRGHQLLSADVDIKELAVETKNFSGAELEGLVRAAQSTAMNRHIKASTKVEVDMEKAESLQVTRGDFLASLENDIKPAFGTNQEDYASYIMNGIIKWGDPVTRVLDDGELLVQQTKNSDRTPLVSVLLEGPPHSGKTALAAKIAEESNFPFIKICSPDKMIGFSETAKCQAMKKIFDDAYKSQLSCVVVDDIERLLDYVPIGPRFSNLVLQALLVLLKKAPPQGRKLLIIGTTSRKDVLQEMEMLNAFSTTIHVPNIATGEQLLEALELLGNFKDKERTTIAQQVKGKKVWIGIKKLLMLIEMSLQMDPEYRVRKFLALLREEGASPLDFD
# T2 sequence (P18708 whole entry): as above
# T2 sequence (P81125 whole entry partner): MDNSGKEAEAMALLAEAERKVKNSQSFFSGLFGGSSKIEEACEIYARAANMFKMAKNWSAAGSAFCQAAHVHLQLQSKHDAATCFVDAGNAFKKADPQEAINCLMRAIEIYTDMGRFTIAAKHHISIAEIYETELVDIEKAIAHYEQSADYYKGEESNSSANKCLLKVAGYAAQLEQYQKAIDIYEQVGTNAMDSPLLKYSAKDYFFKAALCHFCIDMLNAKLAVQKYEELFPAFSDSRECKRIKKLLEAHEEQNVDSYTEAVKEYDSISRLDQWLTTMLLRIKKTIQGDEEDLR
# T2 sequence (Q12846 whole entry partner): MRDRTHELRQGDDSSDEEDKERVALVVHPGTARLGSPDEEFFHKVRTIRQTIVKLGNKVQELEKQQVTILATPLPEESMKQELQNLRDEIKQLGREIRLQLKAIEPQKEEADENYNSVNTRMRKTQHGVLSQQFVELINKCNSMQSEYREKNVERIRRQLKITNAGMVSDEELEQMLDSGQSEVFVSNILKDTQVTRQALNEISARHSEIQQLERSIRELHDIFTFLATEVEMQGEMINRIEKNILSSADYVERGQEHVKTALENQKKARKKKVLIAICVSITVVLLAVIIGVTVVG
# T2 sequence (Q15836 whole entry partner): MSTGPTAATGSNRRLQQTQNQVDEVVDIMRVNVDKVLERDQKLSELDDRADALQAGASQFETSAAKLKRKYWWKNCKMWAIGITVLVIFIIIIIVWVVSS
# T2 sequence (O00161 whole entry partner): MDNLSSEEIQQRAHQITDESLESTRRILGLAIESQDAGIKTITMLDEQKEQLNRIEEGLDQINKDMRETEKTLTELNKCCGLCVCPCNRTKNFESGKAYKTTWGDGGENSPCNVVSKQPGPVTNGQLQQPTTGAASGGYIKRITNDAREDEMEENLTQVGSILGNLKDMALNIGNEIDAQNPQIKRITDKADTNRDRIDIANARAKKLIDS
molecule,measurement,setting,value
CC(=N)NCc1cccc(CN)c1 [1400W],effect on thrombin stimulated vWF release,[1],had no effect
"NCCN(CCN)/[N+]([O-])=N/O [DETA-NONOate, dithylenetriamine (DETA)-NONOate]","effect on thrombin induced vWF release, dose response",[1],inhibits thrombin induced vWF release
"COC(=O)[C@@H](N)CCCNC(=N)N[N+](=O)[O-] [L-NAME, L-nitroarginine-methyl-ester]","effect on thrombin induced vWF release, dose response",[1],increases thrombin stimulated vWF release in a dose-dependent manner
same,effect on thrombin stimulated vWF release,[1],increases the amount of vWF released
same,effect on VEGF inhibition of thrombin stimulated vWF release,"[1]; L-NAME 1 mM, VEGF 50 ng/ml 2 h",blocks the effects of VEGF treatment
same,"histamine induced platelet interactions with the venule wall, frequency vs non-treated mice","mice [2]; 5 mg/kg L-NAME intravenously, histamine superfusion",more than double
same,time of peak platelet-venule interactions after histamine treatment,mice [2]; L-NAME pre-treated,6 min
CCN1C(=O)C=CC1=O [NEM],"effect on thrombin induced vWF release, dose response",[1],inhibits thrombin induced vWF release
YGRKKRRQRRR-GGG-ENSFRFLADIFPAKAFPVRFE (YGRKKRRQRRRGGGENSFRFLADIFPAKAFPVRFE; fusion peptide) [TAT-NSF222scr],effect on bleeding time,mice [3],has no effect upon bleeding time
YGRKKRRQRRR-GGG-GLDKEFNSIFRRAFASRVFPPE (YGRKKRRQRRRGGGGLDKEFNSIFRRAFASRVFPPE; fusion peptide) [TAT-NSF222],effect of peptide on thrombin induced vWF release,[1],inhibits vWF release in a dose-dependent manner
same,effect on NSF ATPase activity,recombinant NSF; recombinant NSF,inhibits both NSF ATPase activity
same,effect on NSF disassembly activity,[4],also NSF disassembly activity
same,mice with bleeding times in excess of 20 min,mice [3]; 45 min,3 of the 6
same,effect on bleeding time,mice [3],dramatically prolongs the bleeding time
YGRKKRRQRRR-GGG-LLDYVPIGPRFSNLVLQALLVL (YGRKKRRQRRRGGGLLDYVPIGPRFSNLVLQALLVL; fusion peptide) [TAT-NSF700],effect of peptide on thrombin induced vWF release,[1],most effective at inhibiting release of vWF
same,effect on NSF ATPase activity at 10 μM peptide,"recombinant NSF; 10 μM TAT-NSF peptides, recombinant NSF",more effective than the other peptides
same,size of the infarct,"mice [5]; mice, 5 ug/mouse i.v. 15 min prior to infarction, 35 min ischemia, 24 h reperfusion",44%+/−3
same,absolute reduction in infarct size,mice [5]; vs vehicle treated mice,12%
same,relative reduction in infarct size,mice [5]; vs vehicle treated mice,21%
YGRKKRRQRRRGGGALYSFDKAKQCIGTMTIEID [TAT-NSF81],IC50,"[1]; read-out: IC50% for inhibition of endothelial exocytosis (vWF release), HAEC, 20 min pre-treatment, thrombin 1 U/ml",1 to 10 µM
same,IC50,recombinant NSF,1 to 10 µM
vascular endothelial growth factor [VEGF],effect on thrombin stimulated vWF release,[1],decreases thrombin stimulated vWF release
